Reference: patent US7563592B2, “Alizarin-based chromogenic substrates, their uses and composition containing same” (Biomerieux, S.A., priority 1999, dated 2009)

Key:
Citrobacter diversus = test: β-galactosidase detection on semi-solid medium, clinical and environmental strains (Example 2); type: cell-based; details: 50 mg/l + iron citrate 500 mg/l; 18 hours; 9 strains tested
Enterobacter cloacae = test: as above; type: cell-based; details: 50 mg/l + iron citrate 500 mg/l; 18 hours; 21 strains tested
Hafnia alvei = test: as above; type: cell-based; details: 50 mg/l + iron citrate 500 mg/l; 18 hours; 10 strains tested
Salmonella spp. = test: as above; type: cell-based; details: 50 mg/l + iron citrate 500 mg/l; 18 hours; 64 strains tested
Serratia odorifera = test: as above; type: cell-based; details: 50 mg/l + iron citrate 500 mg/l; 18 hours; 1 strain tested
Shigella flexneri = test: as above; type: cell-based; details: 50 mg/l + iron citrate 500 mg/l; 18 hours; 2 strains tested
Shigella sonnei = test: as above; type: cell-based; details: 50 mg/l + iron citrate 500 mg/l; 18 hours; 10 strains tested
[1] = tested on: Yersinia pseudotuberculosis; type: cell-based; details: 50 mg/l + iron citrate 500 mg/l; 18 hours; 3 strains tested
Listeria grayi 078 = test: Effect of metal salts on the color of the marker part, substrate 50 mg/l in Columbia medium (Example 3); type: cell-based
Protocol: (§1) To the Columbia-base medium (46.37 g/l) supplemented with Alizarin-2-β-D-glucoside (50 mg/l), were added either Manganese chloride, Ammoniacal iron citrate, Tin chloride, or Aluminum sulfate, all at a concentration of 50 mg/l. A control medium with no metal salts was tested in parallel. After autoclaving, these various media were all used to prepare Petri dishes (20 ml per plate). […] It should be pointed out that intensity readings are in arbitrary units. The only purpose of giving these values is to make it possible to compare one strain with another in this respect. The same is true for the examples which follow. Similarly, the strains tested were taken from the Applicant's collection and the number given represents an internal reference specific to this collection. The same internal numbering system is also used in some of the examples given later on.

Listeria innocua 029 = test: as above; type: cell-based
Protocol: as §1

Listeria innocua 077 = test: as above; type: cell-based
Protocol: as §1

Listeria seeligeri 011 = test: as above; type: cell-based
Protocol: as §1

[2] = tested on: Enterococcus faecalis 117; test: Comparison of glucoside substrates in semi-solid Columbia medium (Example 7); type: cell-based; details: 0.05 g/l + iron citrate 0.05 g/l
eight (8) species tested = test: β-glucosidase detection in API strip wells, all species together (Example 6); type: cell-based; details: of the eight (8) species tested; 0.12 g/l + iron citrate 0.05 g/l
Listeria ivanovii 018 = test: β-glucosidase detection in API strip wells (Example 6); details: 0.12 g/l + iron citrate 0.05 g/l
[3] = Manganese chloride 50 mg/l, 24 H
[4] = Manganese chloride 50 mg/l, 48 H

Compound: O=C1c2ccccc2C(=O)c2c1ccc(O[C@@H]1O[C@H](CO)[C@H](O)[C@H](O)[C@H]1O)c2O [Alizarin-2-β-D-galactoside]
- percentage of positive strains (Citrobacter diversus): 89%
- percentage of positive strains (Enterobacter cloacae): 100%
- percentage of positive strains (Hafnia alvei): 80%
- percentage of positive strains (Salmonella spp.): 0%
- percentage of positive strains (Serratia odorifera): 100%
- percentage of positive strains (Shigella flexneri): 0%
- percentage of positive strains (Shigella sonnei): 100%
- percentage of positive strains [1]: 67%

Compound: O=C1c2ccccc2C(=O)c2c1ccc(O[C@@H]1O[C@H](CO)[C@@H](O)[C@H](O)[C@H]1O)c2O [Alizarin-2-β-D-glucoside]
- Color (Listeria grayi 078; Aluminum sulfate 50 mg/l, 24 H): red
- Intensity (Listeria grayi 078; Aluminum sulfate 50 mg/l, 24 H): 4 arbitrary units
- Color (Listeria grayi 078; Aluminum sulfate 50 mg/l, 48 H): red
- Intensity (Listeria grayi 078; Aluminum sulfate 50 mg/l, 48 H): 4 arbitrary units
- Color (Listeria grayi 078; Control, no metal salt, 24 H): purple
- Intensity (Listeria grayi 078; Control, no metal salt, 24 H): 2 arbitrary units
- Color (Listeria grayi 078; Control, no metal salt, 48 H): purple
- Intensity (Listeria grayi 078; Control, no metal salt, 48 H): 2.3 arbitrary units
- Color (Listeria grayi 078; Iron citrate 50 mg/l, 24 H): purple
- Intensity (Listeria grayi 078; Iron citrate 50 mg/l, 24 H): 4 arbitrary units
- Color (Listeria grayi 078; Iron citrate 50 mg/l, 48 H): purple
- Intensity (Listeria grayi 078; Iron citrate 50 mg/l, 48 H): 4 arbitrary units
- Color (Listeria grayi 078; [3]): purple
- Intensity (Listeria grayi 078; [3]): 2 arbitrary units
- Color (Listeria grayi 078; [4]): purple
- Intensity (Listeria grayi 078; [4]): 2 arbitrary units
- Color (Listeria grayi 078; Tin chloride 50 mg/l, 24 H): orange
- Intensity (Listeria grayi 078; Tin chloride 50 mg/l, 24 H): 3 arbitrary units
- Color (Listeria grayi 078; Tin chloride 50 mg/l, 48 H): orange
- Intensity (Listeria grayi 078; Tin chloride 50 mg/l, 48 H): 4 arbitrary units
- Color (Listeria innocua 029; Aluminum sulfate 50 mg/l, 24 H): red
- Intensity (Listeria innocua 029; Aluminum sulfate 50 mg/l, 24 H): 4 arbitrary units
- Color (Listeria innocua 029; Aluminum sulfate 50 mg/l, 48 H): red
- Intensity (Listeria innocua 029; Aluminum sulfate 50 mg/l, 48 H): 4 arbitrary units
- Color (Listeria innocua 029; Control, no metal salt, 24 H): purple
- Intensity (Listeria innocua 029; Control, no metal salt, 24 H): 2 arbitrary units
- Color (Listeria innocua 029; Control, no metal salt, 48 H): purple
- Intensity (Listeria innocua 029; Control, no metal salt, 48 H): 2.3 arbitrary units
- Color (Listeria innocua 029; Iron citrate 50 mg/l, 24 H): purple
- Intensity (Listeria innocua 029; Iron citrate 50 mg/l, 24 H): 4 arbitrary units
- Color (Listeria innocua 029; Iron citrate 50 mg/l, 48 H): purple
- Intensity (Listeria innocua 029; Iron citrate 50 mg/l, 48 H): 4 arbitrary units
- Color (Listeria innocua 029; [3]): purple
- Intensity (Listeria innocua 029; [3]): 2.3 arbitrary units
- Color (Listeria innocua 029; [4]): purple
- Intensity (Listeria innocua 029; [4]): 2.3 arbitrary units
- Color (Listeria innocua 029; Tin chloride 50 mg/l, 24 H): orange
- Intensity (Listeria innocua 029; Tin chloride 50 mg/l, 24 H): 3 arbitrary units
- Color (Listeria innocua 029; Tin chloride 50 mg/l, 48 H): orange
- Intensity (Listeria innocua 029; Tin chloride 50 mg/l, 48 H): 4 arbitrary units
- Color (Listeria innocua 077; Aluminum sulfate 50 mg/l, 24 H): red
- Intensity (Listeria innocua 077; Aluminum sulfate 50 mg/l, 24 H): 4 arbitrary units
- Color (Listeria innocua 077; Aluminum sulfate 50 mg/l, 48 H): red
- Intensity (Listeria innocua 077; Aluminum sulfate 50 mg/l, 48 H): 4 arbitrary units
- Color (Listeria innocua 077; Control, no metal salt, 24 H): purple
- Intensity (Listeria innocua 077; Control, no metal salt, 24 H): 2.3 arbitrary units
- Color (Listeria innocua 077; Control, no metal salt, 48 H): purple
- Intensity (Listeria innocua 077; Control, no metal salt, 48 H): 2.3 arbitrary units
- Color (Listeria innocua 077; Iron citrate 50 mg/l, 24 H): purple
- Intensity (Listeria innocua 077; Iron citrate 50 mg/l, 24 H): 4 arbitrary units
- Color (Listeria innocua 077; Iron citrate 50 mg/l, 48 H): purple
- Intensity (Listeria innocua 077; Iron citrate 50 mg/l, 48 H): 4 arbitrary units
- Color (Listeria innocua 077; [3]): purple
- Intensity (Listeria innocua 077; [3]): 2.3 arbitrary units
- Color (Listeria innocua 077; [4]): purple
- Intensity (Listeria innocua 077; [4]): 2.3 arbitrary units
- Color (Listeria innocua 077; Tin chloride 50 mg/l, 24 H): orange
- Intensity (Listeria innocua 077; Tin chloride 50 mg/l, 24 H): 3 arbitrary units
- Color (Listeria innocua 077; Tin chloride 50 mg/l, 48 H): orange
- Intensity (Listeria innocua 077; Tin chloride 50 mg/l, 48 H): 4 arbitrary units
- Color (Listeria seeligeri 011; Aluminum sulfate 50 mg/l, 24 H): red
- Intensity (Listeria seeligeri 011; Aluminum sulfate 50 mg/l, 24 H): 4 arbitrary units
- Color (Listeria seeligeri 011; Aluminum sulfate 50 mg/l, 48 H): red
- Intensity (Listeria seeligeri 011; Aluminum sulfate 50 mg/l, 48 H): 4 arbitrary units
- Color (Listeria seeligeri 011; Control, no metal salt, 24 H): purple
- Intensity (Listeria seeligeri 011; Control, no metal salt, 24 H): 2.3 arbitrary units
- Color (Listeria seeligeri 011; Control, no metal salt, 48 H): purple
- Intensity (Listeria seeligeri 011; Control, no metal salt, 48 H): 2.3 arbitrary units
- Color (Listeria seeligeri 011; Iron citrate 50 mg/l, 24 H): purple
- Intensity (Listeria seeligeri 011; Iron citrate 50 mg/l, 24 H): 4 arbitrary units
- Color (Listeria seeligeri 011; Iron citrate 50 mg/l, 48 H): purple
- Intensity (Listeria seeligeri 011; Iron citrate 50 mg/l, 48 H): 4 arbitrary units
- Color (Listeria seeligeri 011; [3]): purple
- Intensity (Listeria seeligeri 011; [3]): 2.7 arbitrary units
- Color (Listeria seeligeri 011; [4]): purple
- Intensity (Listeria seeligeri 011; [4]): 2.7 arbitrary units
- Color (Listeria seeligeri 011; Tin chloride 50 mg/l, 24 H): orange
- Intensity (Listeria seeligeri 011; Tin chloride 50 mg/l, 24 H): 3 arbitrary units
- Color (Listeria seeligeri 011; Tin chloride 50 mg/l, 48 H): orange
- Intensity (Listeria seeligeri 011; Tin chloride 50 mg/l, 48 H): 4 arbitrary units
- Color ([2]; 18 H): Purple
- Intensity ([2]; 18 H): 3.5 arbitrary units
- Color ([2]; 24 H): Purple
- Intensity ([2]; 24 H): 4 arbitrary units
- Color ([2]; 48 H): Purple
- Intensity ([2]; 48 H): 4 arbitrary units
- species in which activity was detected (eight (8) species tested): 7 species
- Color observed (Listeria ivanovii 018; 4 H): Purple
- Color observed (Listeria ivanovii 018; 24 H): Purple
